Measured values: patent US20150031102A1, “METHODS AND COMPOSITIONS FOR ENHANCED PRODUCTION OF BUTANOL BY CLOSTRIDIA” (Butrolix LLC, priority 2012, published 2015)

Tested on: C. acetobutylicum ATCC 824
Assay: Germination and sequential batch cultures of C. acetobutylicum ATCC 824 grown at 37° C. (growth OD600, final pH, ceric ion reactive compounds)
Format: cell-based, Clostridium acetobutylicum
Procedure: Clostridium acetobutylicum ATCC 824 and C. beijerinckii NCIMB 8052 are available from several commercial microbial culture collections including the American Type Culture Collection (ATCC), Manassas, Va., USA. The strain grown at 30 C or 37 C in YE broth, which contained, per liter: 5.0 g yeast extract, 2.5 g casamino acids, 1.0 g L-asparagine, 0.5 g cysteine·HCl, 56 mg K2HPO4, 56 mg KH2PO4, 82 mg anhydrous MgSO4, 8 mg FeSO4.H2O, 6 mg MnSO4.H2O and 10 g glucose. Alternatively, strains were grown in YEPG broth, which was identical to YE expect that K2HPO4 and KH2PO4 were increased to 145 mg/L each and glucose was increased to 60 g/L. The pH of the media was adjusted to 7.2 using 45% KOH prior to sterilization by autoclaving. Media were solidified by addition of 1.5% Bacteriological Agar, Acumedia Manufacturers, Inc., Lansing, Mich. All cultures were grown in anaerobic conditions using the AnaeroPack System, Mitsubishi Gas Chemical Co., Inc., Japan, and GasPak EZ Gas Generating Sachets, Becton, Dickinson and Co., Sparks, Md. Spore stocks were kept at room temperature on agar-solidified media and were activated by suspending spores in 0.5 mL to 1.0 mL of medium followed by heating for 10 min at 80 C before inoculation into growth medium.
Growth of bacterial cultures was measured spectrophotometrically using optical density at 600 nm and pH of cell-free culture supernatants was measured using a hand-held Shindengen ISFET pH Meter KS501, Shendengen Electric Manufacturing Co., Ltd., Bannockburn, Ill.
Total alcohols in cell-free culture supernatants were measured using a modification of a colorimetric method based on ceric ammonium nitrate (Reid and Truelove, 1952). The ceric ion reagent was prepared by adding 1.3 mL of concentrated nitric acid to 40 mL of distilled water, then 10.96 g of ceric ammonium nitrate was dissolved in the dilute nitric acid solution and the solution was brought to a final volume of 50 mL. For the assay, […] of butanol standard or culture supernatant was mixed with […] distilled water in a disposable plastic cuvette followed by addition of […] of the ceric ion reagent. The sample was mixed by inverting the cuvette six times then exactly two minutes later the optical density at 500 nm wavelength was measured. The concentration of total alcohols was determined by comparison with a standard curve prepared by using butanol diluted in distilled water.
Spores of C. acetobutylicum ATCC 824 were germinated and grown overnight at 37 C under anaerobic conditions in YEPG medium that either contained 50 nM of peptide SEQ ID NO: 143 or no added peptide. After about 24 h of growth, […] of the untreated culture was transferred (transfer 1) to each of two flasks that contained 10 mL of YEPG with either no treatment or with 50 nM peptide SEQ ID NO: 143. At the same time, 10 μL of the culture that was germinated in the presence of peptide SEQ ID NO: 143 was also transferred to 10 mL of YEPG that contained 50 nM of peptide SEQ ID NO: 143. Thereafter, […] of each culture was transferred, at the same time, every 24-48 h to 10 mL of fresh YEPG that contained the same peptide treatment or no treatment. Each culture was stopped after 72 hours if incubation and optical density, pH and ceric ion reactive chemicals were measured. Sequential batch culturing was continued through 3 transfers at which point the untreated culture and the culture that was germinated and transferred in 50 nM of peptide were still growing, while the culture that was treated with peptide after germination had stopped growing (Table 15 and FIG. 7).

[1] = 50 nM added after germination, transfer 1, 72 h culture
[2] = 50 nM added after germination, transfer 2, 72 h culture
[3] = 50 nM added after germination, transfer 3, 72 h culture
[4] = 50-50 (germinated and transferred in 50 nM), transfer 1, 72 h culture
[5] = 50-50 (germinated and transferred in 50 nM), transfer 2, 72 h culture
[6] = 50-50 (germinated and transferred in 50 nM), transfer 3, 72 h culture
[7] = 50-50 (spores germinated in 50 nM peptide), transfer 0 (germinated culture), 72 h culture

Substance: SYPGWSW [peptide SEQ ID NO: 143]
- Final pH [1]: 4.4
- Optical density at 600 nm [1]: 1.891
- Optical density of ceric ion reactive compounds measured at 500 nm [1]: 0.116
- Final pH [2]: 6.0
- Optical density at 600 nm [2]: 0.011
- Optical density of ceric ion reactive compounds measured at 500 nm [2]: 0.000
- Final pH [3]: 5.5
- Optical density at 600 nm [3]: 0.100
- Optical density of ceric ion reactive compounds measured at 500 nm [3]: 0.001
- Growth in sequential transfers (50 nM added after germination, untreated survived through 3 transfers): did not grow beyond the first transfer
- Culture degeneration in terms of production of total alcohols (50 nM peptide treatment during germination and growth): prevented culture degeneration
- Final pH [4]: 4.5
- Optical density at 600 nm [4]: 1.715
- Optical density of ceric ion reactive compounds measured at 500 nm [4]: 0.152
- Final pH [5]: 3.8
- Optical density at 600 nm [5]: 1.858
- Optical density of ceric ion reactive compounds measured at 500 nm [5]: −0.063
- Final pH [6]: 4.6
- Optical density at 600 nm [6]: 1.485
- Optical density of ceric ion reactive compounds measured at 500 nm [6]: 0.138
- Final pH [7]: 4.1
- Optical density at 600 nm [7]: 2.121
- Optical density of ceric ion reactive compounds measured at 500 nm [7]: 0.028
